Data from patent US20210221794A1, “ISATIN DERIVATIVES” (KING SAUD UNIVERSITY, priority 2020, published 2021).

Key:
Assay type in all cases: cell-based, Human
Settings in all cases: concentration 10-M [sic], 2 days after addition
[1] = system: Renal Cancer cells (UO-31); experiment: NCI-60 one-dose screen, Renal Cancer cells (UO-31)
Procedure: (§1) Anticancer activities of the exemplary isatin derivatives were tested by the NIH National Cancer Institutes (NCI), with results summarized in FIGS. 2A-2B. The anticancer activity was tested by NCI, division of cancer treatment and diagnosis, according to the NCI-60 Human Tumor Cell Lines Screen, one-dose screen (https://dtp.cancer.gov/discovery_development/nci-60/methodology.htm). This screening allows for qualified synthesized chemicals to be subjected to an anticancer test against 60 different cancer cell lines. Briefly, exemplary T1 or T2 was dissolved in DMSO:Glycerol, 9:1, at 4 mmol and kept frozen prior to use. For inoculation, a 96 well microtiter was used for the study of different cell lines. Based on the doubling time for each cell line, the well density varied. The plates were incubated at 37° C., 5% CO2, 95% air and 100% relative humidity for 1 day. The exemplary T1 or T2 or a control were added to the plates at a concentration of 10-M. After 2 more days, the plates were fixed and stained to identify growth inhibition relative to cells without drug treatment. Anti-proliferative activity was determined based on careful analysis of historical DTP screening data. Cell death and net growth inhibition were determined based on a time zero control. A value of 100 indicates no growth inhibition. A value of 40 indicates 60% growth inhibition. […]

[2] = system: Non-Small Cell Lung Cancer cells (EKVX); experiment: NCI-60 one-dose screen, Non-Small Cell Lung Cancer cells (EKVX)
Procedure: as §1

[3] = system: Ovarian Cancer cells (IGROV1); experiment: NCI-60 one-dose screen, Ovarian Cancer cells (IGROV1)
Procedure: as §1

[4] = system: Colon Cancer cells (KM12); experiment: NCI-60 one-dose screen, Colon Cancer cells (KM12)
Procedure: as §1

[5] = system: Breast Cancer cells (HS 578T); experiment: NCI-60 one-dose screen, Breast Cancer cells (HS 578T)
Procedure: as §1

[6] = system: Renal Cancer cells (CAKI-1); experiment: NCI-60 one-dose screen, Renal Cancer cells (CAKI-1)
Procedure: as §1

Row | SMILES | reduction compared to control (anticancer activity) [1] [%] | reduction compared to control (anticancer activity) [2] [%] | reduction compared to control (anticancer activity) [3] [%] | reduction compared to control (anticancer activity) [4] [%] | reduction compared to control (anticancer activity) [5] [%] | reduction compared to control (anticancer activity) [6] [%]
1 | O=C1Nc2ccccc2C1=NN=Cc1c[nH]c2ccccc12 [T1] | ~74 | ~79 | ~65 | ~72 | ~85 | ~83
2 | O=C1Nc2ccc(Cl)cc2C1=NN=Cc1c[nH]c2ccccc12 [T2] | ~59 | ~77 |  |  | ~78 | ~71
